Assay results as given in ChEMBL document CHEMBL1132880, “Novel arylpiperazines as selective alpha1-adrenergic receptor antagonists” (Bioorg Med Chem Lett, 2000).

Assays:
[1] = biological target: T1, Alpha-1B adrenergic receptor (Homo sapiens, UniProt P35368); experiment: Binding affinity for human Alpha-1B adrenergic receptor expressed in COS cell membranes
T1 sequence (P35368 whole entry): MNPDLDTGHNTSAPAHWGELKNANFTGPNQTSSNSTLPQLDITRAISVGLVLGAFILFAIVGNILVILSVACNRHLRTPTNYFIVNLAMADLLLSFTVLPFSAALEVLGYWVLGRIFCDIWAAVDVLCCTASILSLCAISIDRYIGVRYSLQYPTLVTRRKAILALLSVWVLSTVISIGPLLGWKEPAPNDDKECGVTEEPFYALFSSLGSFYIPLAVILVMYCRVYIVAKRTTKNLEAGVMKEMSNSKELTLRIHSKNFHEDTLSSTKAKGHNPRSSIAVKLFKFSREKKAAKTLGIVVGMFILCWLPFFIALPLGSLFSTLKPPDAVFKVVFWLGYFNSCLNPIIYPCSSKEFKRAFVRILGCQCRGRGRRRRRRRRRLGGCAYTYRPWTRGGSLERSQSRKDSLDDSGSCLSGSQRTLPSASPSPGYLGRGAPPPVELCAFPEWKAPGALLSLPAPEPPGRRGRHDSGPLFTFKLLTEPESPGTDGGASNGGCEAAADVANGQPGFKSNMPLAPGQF

[2] = biological target: T2, Alpha-1D adrenergic receptor (Homo sapiens, UniProt P25100); experiment: Binding affinity for human Alpha-1D adrenergic receptor expressed in COS cell membranes
T2 sequence (P25100 whole entry): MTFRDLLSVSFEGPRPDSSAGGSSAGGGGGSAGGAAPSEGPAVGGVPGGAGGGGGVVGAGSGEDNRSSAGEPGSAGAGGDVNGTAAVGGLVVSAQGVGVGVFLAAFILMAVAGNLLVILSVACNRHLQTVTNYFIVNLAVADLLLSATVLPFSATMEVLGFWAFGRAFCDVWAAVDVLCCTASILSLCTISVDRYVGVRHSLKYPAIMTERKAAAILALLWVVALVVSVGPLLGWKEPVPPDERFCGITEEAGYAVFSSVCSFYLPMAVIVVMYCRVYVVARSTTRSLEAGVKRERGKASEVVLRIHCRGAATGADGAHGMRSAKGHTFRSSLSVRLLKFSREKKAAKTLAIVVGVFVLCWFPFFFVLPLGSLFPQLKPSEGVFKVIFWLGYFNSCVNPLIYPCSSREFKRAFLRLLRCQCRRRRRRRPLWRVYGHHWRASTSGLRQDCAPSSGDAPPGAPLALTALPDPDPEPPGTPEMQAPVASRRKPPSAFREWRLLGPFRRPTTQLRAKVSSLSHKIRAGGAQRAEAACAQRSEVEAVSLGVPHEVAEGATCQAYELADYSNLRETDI

[3] = biological target: T3, Alpha-1A adrenergic receptor (Homo sapiens, UniProt P35348); experiment: Binding affinity for human Alpha-1A adrenergic receptor expressed in COS cell membranes
T3 sequence (P35348 whole entry): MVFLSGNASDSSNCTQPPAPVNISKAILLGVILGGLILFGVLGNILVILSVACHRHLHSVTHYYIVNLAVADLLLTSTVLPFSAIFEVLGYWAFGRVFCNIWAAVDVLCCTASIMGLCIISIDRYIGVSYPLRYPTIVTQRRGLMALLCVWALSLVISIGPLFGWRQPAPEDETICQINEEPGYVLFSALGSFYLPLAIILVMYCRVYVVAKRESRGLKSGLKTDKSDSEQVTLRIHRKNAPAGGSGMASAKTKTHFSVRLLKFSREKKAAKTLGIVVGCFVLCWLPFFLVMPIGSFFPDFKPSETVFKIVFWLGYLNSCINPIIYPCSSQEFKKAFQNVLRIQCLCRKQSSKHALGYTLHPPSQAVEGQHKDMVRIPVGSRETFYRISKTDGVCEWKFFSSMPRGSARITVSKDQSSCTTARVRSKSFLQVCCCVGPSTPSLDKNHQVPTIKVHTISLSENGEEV

[4] = biological target: Alpha adrenergic receptor (1a and 1d) (Homo sapiens) (UniProt P35348+P25100); experiment: Relative binding affinity for human adrenergic receptor alpha 1d and 1a; type: protein assay
[5] = biological target: Adrenergic receptors; alpha-1 A & B (Homo sapiens) (UniProt P35348+P35368); experiment: Relative binding affinity for human adrenergic receptor alpha 1b and alpha 1a; type: protein assay
[6] = organism: Rattus norvegicus; experiment: pA2 data of Compound was evaluated for tissue contractions in isolated rat prostatic tissue strips.; type: functional; settings: read-out: pA2 (converted)

Row | Ki [1] [µM] | Ki [2] [nM] | Ki [3] [nM] | Ratio [4] | Ratio [5] | SMILES | Kb [6] [nM]
1 | 10 | 80 | 0.66 | 121 | 15200 | CC(C)Oc1ccccc1N1CCN(CCCNC(=O)CN2CCCCC2=O)CC1 [RWJ-69736] | –
2 | 46.1 | 372 | 8.7 | 43 | 5300 | CC(C)Oc1ccccc1N1CCN(CCNC(=O)CN2CCCCC2=O)CC1 [RWJ-38063] | 31.6
3 | 3.54 | 505 | 18 | 28 | 196 | CC(C)Oc1ccccc1N1CCN(CCNC(=O)CN2CCCCCC2=O)CC1 [RWJ-68157] | 204

The remaining lines, values behind:

Row | SMILES | Ki [1] [µM] | Ki [2] [nM] | Ki [3] [nM] | Ratio [4] | Ratio [5] | Kb [6] [nM]
4 | CC(C)Oc1ccccc1N1CCN(CC(O)CC(=O)CN2CCCCC2=O)CC1 (stereo not drawn) | 10 | 253 | 28 | 9 | 556 | –
5 | CC(C)Oc1cc(F)ccc1N1CCN(CCNC(=O)CN2CCCCC2=O)CC1 | 10 | 4500 | 83 | 54 | 120 | –
6 | COc1ccccc1N1CCN(CCCNC(=O)CN2CCCCC2=O)CC1 | 10 | 10000 | 98 | 102 | 102 | –
7 | CC(C)Oc1ccccc1N1CCN(CCN(C)C(=O)CN2CCCCC2=O)CC1 | 10 | 650 | 53 | 12 | 187 | –
8 | CC(C)Oc1ccccc1N1CCN(CC(=O)CC(=O)CN2CCCCC2=O)CC1 | 10 | 6040 | 417 | 14 | 24 | –
9 | CCOC(=O)C1CCC(=O)N1CC(=O)NCCN1CCN(c2ccccc2OC(C)C)CC1 (stereo not drawn) | 26.3 | 260 | 20 | 13 | 1320 | 16.2
10 | CC(C)Oc1ccccc1N1CCN(CCOC(=O)CN2CCCCC2=O)CC1 | 2.24 | 108 | 38 | 3 | 59 | –
11 | CC(C)Oc1ccccc1N1CCN(C/C=C/C(=O)CN2CCCCC2=O)CC1 | 5.32 | 602 | 18 | 33 | 295 | –
12 | O=C(CN1CCCCC1=O)NCCN1CCN(c2ccc(F)cc2OCC(F)(F)F)CC1 | 10 | 5350 | 129 | 41 | 77 | –
